From patent US20220000841A1, “INHIBITORS OF METALLO-BETA-LACTAMASES” (CENTRE NATIONAL DE LA RECHERCHE SCIENTIFIQUE, priority 2018, published 2022)

What was measured:
[1] = biological target: NDM-1 (Klebsiella pneumoniae, UniProt C7C422); assay: Enzymatic assay for determination of inhibition constants, reporter substrate method, purified NDM-1; assay type: biochemical; settings: for Ki: isolated MBL, competitive inhibition model;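 on all read-outs here: purified enzyme activity followed as absorbance change from reporter substrate hydrolysis on a UV-Vis spectrophotometer or plate reader, 50 mM HEPES pH 7.5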
[2] = tested on: K. pneumoniae SI-001 (blaVIM-1+); assay: Broth microdilution MIC of meropenem in absence and presence of MBL inhibitor, SI-001; assay type: cell-based; settings: MBL inhibitor fixed at 32 μg/ml, Mueller-Hinton broth, duplicate
Method: (§1) This method was performed in agreement with the CLSI recommendations (document M07-A10, 2015, “Methods for Dilution Antimicrobial Susceptibility Tests for Bacteria That Grow Aerobically”).
(§2) MIC values of meropenem (MEM) were determined in duplicate in Mueller-Hinton broth as recommended by CLSI (document M07-A10, 2015), in absence and presence of a fixed concentration of MBL inhibitor (32 μg/ml).

[3] = biological target: VIM-2 (Escherichia coli, UniProt Q5U7L7); assay: Enzymatic assay for determination of inhibition constants, reporter substrate method, purified VIM-2; assay type: biochemical; settings: for Ki: isolated MBL, competitive inhibition model, read-out: Ki VIM-2;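 on all read-outs here: purified VIM-2 hydrolysing a reporter substrate (imipenem, meropenem, cefotaxime or nitrocefin), reaction rate read as absorbance change, HEPES 50 mM at pH 7.5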
[4] = tested on: K. pneumoniae S1-002 (blaVIM-4+); assay: Broth microdilution MIC of meropenem in absence and presence of MBL inhibitor, S1-002; assay type: cell-based; settings: MBL inhibitor fixed at 32 μg/ml, Mueller-Hinton broth, duplicate
Method: as §1, §2

[5] = biological target: IMP-1 (Serratia marcescens, UniProt P52699); assay: Enzymatic assay for determination of inhibition constants, reporter substrate method, purified IMP-1; assay type: biochemical; settings: for Ki: isolated MBL, competitive inhibition model;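 on all read-outs here: purified IMP-1 (1-70 nM) hydrolysing a reporter substrate, initial rates followed as absorbance change at 260, 300 or 482 nm in 50 mM HEPES pH 7.5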
Method: The reaction rate was measured as the variation of absorbance observed upon substrate hydrolysis in a UV-Vis spectrophotometer or microplate reader at a wavelength of 300 nm (imipenem, meropenem), 260 nm (cefotaxime) or 482 nm (nitrocefin) in 50 mM HEPES buffer (pH 7.5) and in the presence of a purified MBL enzyme (such as VIM-1, VIM-2, VIM-4, NDM-1 and IMP-1, at a final concentration ranging 1-70 nM).
The inhibition constants (Ki) were determined on the basis of a model of competitive inhibition by analyzing the dependence of the ratio v0/vi (v0, hydrolysis velocity in the absence of inhibitor; vi, hydrolysis velocity in the presence of inhibitor) as a function of [I] as already described [Docquier J. D., Lamotte-Brasseur J., Galleni M., Amicosante G., Frère J. M., Rossolini G. M. (2003) J. Antimicrob. […] The slope of the plot of v0/vi vs [I], which corresponds to Km^S/(Km^S+[S])Ki (where Km^S is the Km value of the reporter substrate and [S] its concentration in the reaction mixture) and allowed the calculation of the Ki value. Alternatively, a Dixon plot analysis was carried out, by measuring the initial hydrolysis rates in the presence of variable concentrations of inhibitor and substrate.

[6] = biological target: VIM-1 (Pseudomonas aeruginosa, UniProt A0A0F7KYQ8); assay: Enzymatic assay for determination of inhibition constants, reporter substrate method, purified VIM-1; assay type: biochemical; settings: isolated MBL, competitive inhibition model;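 further: initial hydrolysis rates of a reporter β-lactam (imipenem, meropenem, cefotaxime or nitrocefin) followed by absorbance change, purified enzyme at 1–70 nM in 50 mM HEPES pH 7.5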
[7] = biological target: VIM-4 (Pseudomonas aeruginosa, UniProt Q8KRJ3); assay: Enzymatic assay for determination of inhibition constants, reporter substrate method, purified VIM-4; assay type: biochemical; settings: at 100 μM (maximal tested concentration);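 further: purified VIM-4 (1-70 nM) in 50 mM HEPES pH 7.5, reporter substrate hydrolysis rate tracked by absorbance change (nitrocefin 482 nm, imipenem or meropenem 300 nm, cefotaxime 260 nm)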
[8] = at 100 μM (maximal tested concentration)
[9] = at 200 μM (maximal tested concentration)

Sequence of IMP-1 (P52699 19-246, looked up, species assumed): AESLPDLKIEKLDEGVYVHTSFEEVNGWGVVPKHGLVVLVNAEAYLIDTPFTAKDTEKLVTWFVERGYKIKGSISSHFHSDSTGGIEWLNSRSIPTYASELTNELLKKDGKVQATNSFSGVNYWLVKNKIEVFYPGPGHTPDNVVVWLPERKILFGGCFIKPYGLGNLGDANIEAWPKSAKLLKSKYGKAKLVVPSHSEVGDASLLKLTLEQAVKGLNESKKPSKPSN
Sequence of NDM-1 (C7C422 29-270, looked up, species assumed): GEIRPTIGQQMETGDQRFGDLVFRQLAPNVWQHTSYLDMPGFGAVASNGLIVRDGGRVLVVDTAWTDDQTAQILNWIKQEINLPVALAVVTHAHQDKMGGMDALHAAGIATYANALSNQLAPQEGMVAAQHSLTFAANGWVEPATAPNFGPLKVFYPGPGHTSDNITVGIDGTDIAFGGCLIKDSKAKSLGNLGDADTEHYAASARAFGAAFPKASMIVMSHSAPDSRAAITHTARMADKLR

SMILES | % inhibition NDM-1 [1, 8] | MIC potentiation of meropenem (x.log2 dilutions), K. pneumoniae SI-001 (blaVIM-1+) [2] | Ki [3] | MIC potentiation of meropenem (x.log2 dilutions), K. pneumoniae S1-002 (blaVIM-4+) [4] | % inhibition IMP-1 [5, 8] | Ki [6] | Ki [1] | Ki [5] | melting point | % inhibition VIM-4 [7] | % inhibition VIM-2 [3, 8] | % inhibition VIM-2 [3, 9] | % inhibition NDM-1 [1, 9] | % inhibition IMP-1 [5, 9]
O=[N+]([O-])c1ccc(CSCCn2c(-c3ccccc3)n[nH]c2=S)cc1 [Compound 74, 4-[2-(4-Nitrobenzylsulfanyl)ethyl]-3-phenyl-4,5-dihydro-1H-1,2,4-triazole-5-thione] | 95% at 100 μM | 3 log2 dilutions | 1 to 10 µM | ≥4 log2 dilutions | 92% at 100 μM | < 1 µM |  |  |  |  |  |  |  | 
CN1CCN(CCOc2cccc(-c3n[nH]c(=S)n3CCc3ccccc3C(=O)O)c2)CC1 [Compound 63, o-[2-(3-{m-[2-(4-Methyl-1-piperazinyl)ethoxy]phenyl}-5-thioxo-1,4-dihydro-1,2,4-triazol-4-yl)ethyl]benzoic acid] |  | 2 log2 dilutions | < 1 µM | 3 log2 dilutions |  | 1 to 10 µM | > 100 µM | > 100 µM |  |  |  |  |  | 
O=C1OC(Cn2c(-c3ccccc3)n[nH]c2=S)c2ccccc21 (centres unmarked) [Compound 37, 5-Phenyl-4-[(3-phthalideyl)methyl]-2,4-dihydro-1,2,4-triazole-3-thione] | 50% at 100 μM | 3 log2 dilutions | > 100 µM | 3 log2 dilutions |  | < 1 µM |  | > 100 µM |  |  |  |  |  | 
O=C(O)CCCCCn1c(-c2ccccc2)n[nH]c1=S [Compound 45, 6-(3-Phenyl-5-sulfanylidene-4,5-dihydro-1H-1,2,4-triazol-4-yl)hexanoic acid] | 55% at 100 μM |  | < 1 µM |  |  |  |  | > 100 µM | 136 to 137 °C | 85% at 100 μM |  |  |  | 
O=C(O)CC(Cn1c(-c2ccccc2)n[nH]c1=S)c1ccc(Cl)cc1 (centres unmarked) [Compound 21, 3-(4-chlorophenyl)-4-(3-phenyl-5-sulfanylidene-4,5-dihydro-1H-1,2,4-triazol-4-yl)butanoic acid] |  |  | 1 to 10 µM |  |  | > 100 µM | > 100 µM | > 100 µM | 153 to 154 °C | 95% at 100 μM |  |  |  | 
O=C(O)CCCn1c(-c2ccc3ccccc3c2)n[nH]c1=S [Compound 19, 4-[3-(naphthalen-2-yl)-5-sulfanylidene-4,5-dihydro-1H-1,2,4-triazol-4-yl]butanoic acid] |  |  | 1 to 10 µM |  |  | > 100 µM | > 100 µM | > 100 µM | 220 to 221 °C | 75% at 100 μM |  |  |  | 
O=C(O)C1CCCC(n2c(-c3ccccc3)n[nH]c2=S)C1 (centres unmarked) [Compound 47, 3-(3-Phenyl-5-sulfanylidene-4,5-dihydro-1H-1,2,4-triazol-4-yl)cyclohexane-1-carboxylic acid] |  |  |  |  |  |  | > 100 µM | > 100 µM | 234 to 235 °C | 70% at 100 μM | 60% at 100 μM |  |  | 
O=C(O)C1CCC(Cn2c(-c3ccccc3)n[nH]c2=S)CC1 (centres unmarked) [Compound 34, 4-[(3-phenyl-5-sulfanylidene-4,5-dihydro-1H-1,2,4-triazol-4-yl)methyl]cyclohexane-1-carboxylic acid] |  |  |  |  |  |  | > 100 µM | > 100 µM | 207 to 208 °C | 90% at 100 μM |  | 75% at 200 μM |  | 
COc1ccc(O)c(-c2n[nH]c(=S)n2CCCCC(=O)O)c1 [Compound 29, 5-[3-(2-hydroxy-5-methoxyphenyl)-5-sulfanylidene-4,5-dihydro-1H-1,2,4-triazol-4-yl]pentanoic acid] |  |  |  |  |  |  | > 100 µM | > 100 µM | 155 to 156 °C | 90% at 100 μM |  | 60% at 200 μM |  | 
O=C(O)c1ccccc1CCn1c(-c2ccc3ccccc3c2)n[nH]c1=S [Compound 3, 2-{2-[3-(naphthalen-2-yl)-5-sulfanylidene-4,5-dihydro-1H-1,2,4-triazol-4-yl]ethyl}benzoic acid] |  |  | < 1 µM |  |  | > 100 µM |  | 10 to 100 µM | 240 to 241 °C | 75% at 100 μM |  |  | 60% at 200 μM | 
O=C(O)c1ccccc1CCn1c(C23CC4CC(CC(C4)C2)C3)n[nH]c1=S [Compound 35, 2-{2-[3-(adamantan-1-yl)-5-sulfanylidene-4,5-dihydro-1H-1,2,4-triazol-4-yl]ethyl}benzoic acid] |  |  | 1 to 10 µM |  |  |  | > 100 µM | > 100 µM | > 250 °C | 55% at 100 μM |  |  |  | 
COc1cccc(-c2n[nH]c(=S)n2CCc2ccccc2C(=O)O)c1 [Compound 22, 2-{2-[3-(3-methoxyphenyl)-5-sulfanylidene-4,5-dihydro-1H-1,2,4-triazol-4-yl]ethyl}benzoic acid] |  |  | < 1 µM |  |  |  | > 100 µM | > 100 µM | 197 to 198 °C | 80% at 100 μM |  |  |  | 
CCCCCCn1c(-c2ccccc2)n[nH]c1=S [Compound 26, 4-hexyl-3-phenyl-4,5-dihydro-1H-1,2,4-triazole-5-thione] |  |  | 1 to 10 µM |  |  |  | > 100 µM | > 100 µM | 98 to 99 °C | 85% at 100 μM |  |  |  | 
COc1cccc(-c2n[nH]c(=S)n2CCCC(=O)O)c1 [Compound 24, 4-[3-(3-methoxyphenyl)-5-sulfanylidene-4,5-dihydro-1H-1,2,4-triazol-4-yl]butanoic acid] |  |  |  |  |  |  | > 100 µM | > 100 µM | 159 to 160 °C | 85% at 100 μM |  | 70% at 200 μM |  | 
CCCCn1c(-c2ccccc2)n[nH]c1=S [Compound 32, 4-butyl-3-phenyl-4,5-dihydro-1H-1,2,4-triazole-5-thione] |  |  | 1 to 10 µM |  |  |  | > 100 µM | 10 to 100 µM | 128 to 129 °C | 75% at 100 μM |  |  |  | 
CC(C)(C)OC(=O)NC(CCCn1c(-c2ccccc2)n[nH]c1=S)C(=O)O (centres unmarked) [Compound 25, 2-{[(tert-butoxy)carbonyl]amino}-5-(3-phenyl-5-sulfanylidene-4,5-dihydro-1H-1,2,4-triazol-4-yl)pentanoic acid] |  |  | 1 to 10 µM |  |  |  | > 100 µM | > 100 µM | 105 to 106 °C | 85% at 100 μM |  |  |  | 
COc1ccc(O)c(-c2n[nH]c(=S)n2CCCC(=O)O)c1 [Compound 18, 4-[3-(2-hydroxy-5-methoxyphenyl)-5-sulfanylidene-4,5-dihydro-1H-1,2,4-triazol-4-yl]butanoic acid] |  |  | 1 to 10 µM |  |  | > 100 µM | > 100 µM | > 100 µM | 155 to 156 °C | 90% at 100 μM |  |  |  | 
O=C(O)CC1(Cn2c(-c3ccccc3)n[nH]c2=S)CCCCC1 [Compound 17, 2-{1-[(3-phenyl-5-sulfanylidene-4,5-dihydro-1H-1,2,4-triazol-4-yl)methyl]cyclohexyl}acetic acid] |  |  | 1 to 10 µM |  |  |  | > 100 µM | > 100 µM | 80 to 81 °C | 60% at 100 μM |  |  |  | 
O=C(O)c1ccccc1CCn1c(-c2ccc(Cl)s2)n[nH]c1=S [Compound 27, 2-{2-[3-(5-chlorothiophen-2-yl)-5-sulfanylidene-4,5-dihydro-1H-1,2,4-triazol-4-yl]ethyl}benzoic acid] |  |  | 1 to 10 µM |  |  |  | > 100 µM | > 100 µM | 240 to 241 °C | 85% at 100 μM |  |  |  | 
O=C(O)CCCCn1c(-c2ccc3ccccc3c2)n[nH]c1=S [Compound 30, 5-[3-(naphthalen-2-yl)-5-sulfanylidene-4,5-dihydro-1H-1,2,4-triazol-4-yl]pentanoic acid] |  |  | 1 to 10 µM |  |  |  | > 100 µM |  | 170 to 171 °C | 80% at 100 μM |  |  |  | 60% at 200 μM
